# Data published in US12030904B2 (priority 2020, dated 2024).
# Read-outs that look alike come from different tables or passages of the source.
# Experiments:
# [1] = system: Recombinant Respiratory Syncytial virus strain A2 containing the firefly luciferase reporter (RSV-Fluc); test: microbe, parasite or virus in culture; type: cell-based; settings: human respiratory syncytial virus, NHBE
# SARS-CoV-2 = test: microbe, parasite or virus in culture; type: cell-based; settings: Severe acute respiratory syndrome coronavirus 2, read-out: SARS EC50
# MT4 cytotoxicity (CC50) = settings: human, MT4 cells
# [2] = 72 h, read-out: RSV-Fluc EC50 (NHBE), NHBE cells, three days, Table 2
SMILES,"EC50 ([1]; read-out: RSV EC50, Table 4) [µM]",EC50 (SARS-CoV-2) [µM],"CC50 (MT4 cytotoxicity (CC50); MT4 CC50, Table 4) [µM]","EC50 ([1]; read-out: RSV EC50, Table 2a) [µM]","CC50 (MT4 cytotoxicity (CC50); MT4 CC50, Table 2a) [µM]","EC50 [1, 2] [µM]"
"CCCCCCCCCCCCCCCCCCOC[C@H](COP(=O)(O)OC[C@H]1O[C@@](C#N)(c2ccc3c(N)ncnn23)[C@H](O)[C@@H]1O)n1cnc(C#N)c1 [Example 79, ((2R,3S,4R,5R)-5-(4-aminopyrrolo[2,1-f][1,2,4]triazin-7-yl)-5-cyano-3,4-dihydroxytetrahydrofuran-2-yl)methyl ((R)-2-(4-cyano-1H-imidazol-1-yl)-3-(octadecyloxy)propyl) hydrogen phosphate]",0.103,0.33,10.1,–,–,–
"CCCCCCCCCCCCCCCOC[C@H](COP(=O)(O)OC[C@H]1O[C@@](C#N)(c2ccc3c(N)ncnn23)[C@H](O)[C@@H]1O)OCc1cc(F)cc(C#N)c1 [Example 118, [(2R,3S,4R,5R)-5-(4-Aminopyrrolo[2,1-f][1,2,4]triazin-7-yl)-5-cyano-3,4-dihydroxy-tetrahydrofuran-2-yl]methyl [(2R)-2-[(3-cyano-5-fluoro-phenyl)methoxy]-3-pentadecoxy-propyl] hydrogen phosphate]",0.037,0.12,0.291,–,–,–
"CCCCCCCCCCCCCCCCCOCCCOP(=O)(O)OC[C@H]1O[C@@](C#N)(c2ccc3c(N)ncnn23)[C@H](O)[C@@H]1O [Example 55, ((2R,3S,4R,5R)-5-(4-aminopyrrolo[2,1-f][1,2,4]triazin-7-yl)-5-cyano-3,4-dihydroxytetrahydrofuran-2-yl)methyl (3-(heptadecyloxy)propyl) hydrogen phosphate]",–,9.42,–,0.086,29.9,–
"CCCCCCCCCCCCCCCCCOC[C@H](COP(=O)(O)OC[C@H]1O[C@@](C#N)(c2ccc3c(N)ncnn23)[C@H](O)[C@@H]1O)OCc1cc(F)cc(C#N)c1 [Example 35, ((2R,3S,4R,5R)-5-(4-aminopyrrolo[2,1-f][1,2,4]triazin-7-yl)-5-cyano-3,4-dihydroxytetrahydrofuran-2-yl)methyl ((R)-2-((3-cyano-5-fluorobenzyl)oxy)-3-(heptadecyloxy)propyl) hydrogen phosphate]",–,0.112,–,0.04,0.425,–
"CCCCCCCCCCCCCCCCCCOC[C@H](COP(=O)(O)OC[C@H]1O[C@@](C#N)(c2ccc3c(N)ncnn23)[C@H](O)[C@@H]1O)Oc1cnc(C#N)c(OC)c1 [Example 83, ((2R,3S,4R,5R)-5-(4-aminopyrrolo[2,1-f][1,2,4]triazin-7-yl)-5-cyano-3,4-dihydroxytetrahydrofuran-2-yl)methyl ((R)-2-((6-cyano-5-methoxypyridin-3-yl)oxy)-3-(octadecyloxy)propyl) hydrogen phosphate]",0.005,0.04,0.164,–,–,–
"CCCCCCCCCCCCCCCCCCOC[C@H](COP(=O)(O)OC[C@H]1O[C@@](C#N)(c2ccc3c(N)ncnn23)[C@H](O)[C@@H]1O)OCc1ccc(OC)c(C#N)c1 [Example 115, [(2R,3S,4R,5R)-5-(4-Aminopyrrolo[2,1-f][1,2,4]triazin-7-yl)-5-cyano-3,4-dihydroxy-tetrahydrofuran-2-yl]methyl [(2R)-2-[(3-cyano-4-methoxy-phenyl)methoxy]-3-octadecoxy-propyl] hydrogen phosphate]",0.166,0.39,1.46,–,–,–
"CCCCCCCCCCCCCCCCCCOC[C@H](COP(=O)(O)OC[C@H]1O[C@@](C#N)(c2ccc3c(N)ncnn23)[C@H](O)[C@@H]1O)OCc1ccc(C#N)c(OC)c1 [Example 54, ((2R,3S,4R,5R)-5-(4-Aminopyrrolo[2,1-f][1,2,4]triazin-7-yl)-5-cyano-3,4-dihydroxytetrahydrofuran-2-yl)methyl ((R)-2-((4-cyano-3-methoxybenzyl)oxy)-3-(octadecyloxy)propyl) hydrogen phosphate]",–,1.63,–,0.019,0.289,–
"CCCCCCCCCCCCCCCCCCOC[C@H](COP(=O)(O)OC[C@H]1O[C@@](C#N)(c2ccc3c(N)ncnn23)[C@H](O)[C@@H]1O)OCc1cc(C#N)cc(OC)c1 [Example 106, [(2R,3S,4R,5R)-5-(4-Aminopyrrolo[2,1-f][1,2,4]triazin-7-yl)-5-cyano-3,4-dihydroxy-tetrahydrofuran-2-yl]methyl [(2R)-2-[(3-cyano-5-methoxy-phenyl)methoxy]-3-octadecoxy-propyl] hydrogen phosphate]",0.088,10,0.871,–,–,–
"CCCCCCCCCCCCCCCCCCOC[C@H](COP(=O)(O)OC[C@H]1O[C@@](C#N)(c2ccc3c(N)ncnn23)[C@H](O)[C@@H]1O)OCc1ccc2c(c1)CCC2 [Example 52, ((2R,3S,4R,5R)-5-(4-aminopyrrolo[2,1-f][1,2,4]triazin-7-yl)-5-cyano-3,4-dihydroxytetrahydrofuran-2-yl)methyl ((R)-2-((2,3-dihydro-1H-inden-5-yl)methoxy)-3-(octadecyloxy)propyl) hydrogen phosphate]",–,0.487,–,0.125,17.9,–
"CCCCCCCCCCCCCCCCCCOC[C@H](COP(=O)(O)OC[C@H]1O[C@@](C#N)(c2ccc3c(N)ncnn23)[C@H](O)[C@@H]1O)OCc1ccc(C#N)cc1C(F)(F)F [Example 105, [(2R,3S,4R,5R)-5-(4-Aminopyrrolo[2,1-f][1,2,4]triazin-7-yl)-5-cyano-3,4-dihydroxy-tetrahydrofuran-2-yl]methyl [(2R)-2-[[4-cyano-2-(trifluoromethyl)phenyl]methoxy]-3-octadecoxy-propyl] hydrogen phosphate]",0.553,10,20.1,–,–,–
"CCCCCCCCCCCCCCCCCCOC[C@H](COP(=O)(O)OC[C@H]1O[C@@](C#N)(c2ccc3c(N)ncnn23)[C@H](O)[C@@H]1O)OCc1ccsc1 [Example 20, ((2R,3S,4R,5R)-5-(4-aminopyrrolo[2,1-f][1,2,4]triazin-7-yl)-5-cyano-3,4-dihydroxytetrahydrofuran-2-yl)methyl ((R)-3-(octadecyloxy)-2-(thiophen-3-ylmethoxy)propyl) hydrogen phosphate]",–,0.264,–,0.076,13.2,0.076
"CCCCCCCCCCCCCCCCCCOC[C@H](COP(=O)(O)OC[C@H]1O[C@@](C#N)(c2ccc3c(N)ncnn23)[C@H](O)[C@@H]1O)Oc1cc(F)cc(C#N)c1 [Example 31, ((2R,3S,4R,5R)-5-(4-aminopyrrolo[2,1-f][1,2,4]triazin-7-yl)-5-cyano-3,4-dihydroxytetrahydrofuran-2-yl)methyl ((R)-2-(3-cyano-5-fluorophenoxy)-3-(octadecyloxy)propyl) hydrogen phosphate]",–,0.086,–,0.021,0.195,–
"CCCCCCCCCCCCCCCCOC[C@H](COP(=O)(O)OC[C@H]1O[C@@](C#N)(c2ccc3c(N)ncnn23)[C@H](O)[C@@H]1O)OCc1ccc(C#N)cc1 [Example 96, ((2R,3S,4R,5R)-5-(4-aminopyrrolo[2,1-f][1,2,4]triazin-7-yl)-5-cyano-3,4-dihydroxytetrahydrofuran-2-yl)methyl ((R)-2-((4-cyanobenzyl)oxy)-3-(hexadecyloxy)propyl) hydrogen phosphate]",0.023,0.043,0.511,–,–,–
"CCCCCCCCCCCCCCCCCOC[C@H](COP(=O)(O)OC[C@H]1O[C@@](C#N)(c2ccc3c(N)ncnn23)[C@H](O)[C@@H]1O)OCc1ccc(OC)cc1 [Example 37, ((2R,3S,4R,5R)-5-(4-aminopyrrolo[2,1-f][1,2,4]triazin-7-yl)-5-cyano-3,4-dihydroxytetrahydrofuran-2-yl)methyl ((R)-3-(heptadecyloxy)-2-((4-methoxybenzyl)oxy)propyl) hydrogen phosphate]",–,0.371,–,0.039,1.58,–
"CCCCCCCCCCCCCCOC[C@H](COP(=O)(O)OC[C@H]1O[C@@](C#N)(c2ccc3c(N)ncnn23)[C@H](O)[C@@H]1O)OCc1cc(F)cc(C#N)c1 [Example 117, [(2R,3S,4R,5R)-5-(4-aminopyrrolo[2,1-f][1,2,4]triazin-7-yl)-5-cyano-3,4-dihydroxy-tetrahydrofuran-2-yl]methyl [(2R)-2-[(3-cyano-5-fluoro-phenyl)methoxy]-3-tetradecoxy-propyl] hydrogen phosphate]",0.015,0.2,0.473,–,–,–
"CCCCCCCCCCCCCCCOC[C@H](COP(=O)(O)OC[C@H]1O[C@@](C#N)(c2ccc3c(N)ncnn23)[C@H](O)[C@@H]1O)OCc1ccc(C#N)cc1F [Example 102, [(2R,3S,4R,5R)-5-(4-aminopyrrolo[2,1-f][1,2,4]triazin-7-yl)-5-cyano-3,4-dihydroxy-tetrahydrofuran-2-yl]methyl [(2R)-2-[(4-cyano-2-fluoro-phenyl)methoxy]-3-pentadecoxy-propyl] hydrogen phosphate]",0.021,0.12,4.5,–,–,–
"CCCCCCCC/C=C\CCCCCCCCOC[C@H](COP(=O)(O)OC[C@H]1O[C@@](C#N)(c2ccc3c(N)ncnn23)[C@H](O)[C@@H]1O)OCc1ccccc1 [Example 130, ((2R,3S,4R,5R)-5-(4-aminopyrrolo[2,1-f][1,2,4]triazin-7-yl)-5-cyano-3,4-dihydroxytetrahydrofuran-2-yl)methyl ((R)-2-(benzyloxy)-3-(((Z)-octadec-9-en-1-yl)oxy)propyl) hydrogen phosphate]",0.039,0.11,3.56,–,–,–
"CCCCCCCCCCCCCCCCCCOC[C@H](COP(=O)(O)OC[C@H]1O[C@@](C#N)(c2ccc3c(N)ncnn23)[C@H](O)[C@@H]1O)OCc1ccc(C)cc1 [Example 40, ((2R,3S,4R,5R)-5-(4-aminopyrrolo[2,1-f][1,2,4]triazin-7-yl)-5-cyano-3,4-dihydroxytetrahydrofuran-2-yl)methyl ((R)-2-((4-methylbenzyl)oxy)-3-(octadecyloxy)propyl) hydrogen phosphate]",–,0.185,–,0.084,2.23,0.084
